Laboratory results reported in patent US6323014A, “Method and composition for enhancing the activity of an enzyme” (Unilever Home & Personal Care division of Conopco, Inc., priority 1999, dated 2001).

Tests used:
[1] = test system: phenol oxidizing enzyme from Acremonium murorum; assay: Bleaching of tomato stains on cotton swatches, phenol oxidizing enzyme/enhancer system, 50 mM Tris buffer wash solution; format: biochemical; settings: enhancer 250 μM, 50 mM Tris buffer pH 9, 30 minutes, 30° C.; for ΔE, stain bleach performance, Oily Tomato Stain, With enzyme / ΔE, stain bleach performance, Tomato Extract, With enzyme: enzyme 20 mg/l
Procedure: (§1) The potential of the various enhancer to boost the bleach performance of phenol oxidizing enzyme was assessed by washing cotton swatches soiled with tomato stains. Two different bleach monitors were used:
(§2) Tomato extract material was prepared by acetone extraction of the chromophores from concentrated tomato paste. For the preparation of the stains, the colored acetone solution was applied to cotton swatches.
(§3) Oily tomato stains were prepared by applying heated concentrated tomato paste, to which 5 wt % Soya oil was added, to cotton swatches.
(§4) The pH of the wash solution was set to pH 9. Purified phenol oxidizing enzyme from Acremonium murorum was added to the wash solution at 20 mg/l. The enzyme from Acremonium murorum is decribed in WO-A-00/05349 (Unilever). The enhancers were all dosed at 250 μM. The wash solution was 50 mM Tris buffer.
(§5) The swatches were washed during 30 minutes, at 30° C. After the wash, the swatches were tumble-dried and the reflectance spectra were measured using a Minolta spectrometer. The color differences between the swatch before and after the wash data were expressed in the CIELAB L*a*b* color space. In this color space, L* indicates lightness and a* and b* are the chromaticity coordinates. Color differences between two swatches are expressed as ΔE, which is calculated from the following equation: […]

[2] = test system: phenol oxidizing enzyme from Acremonium murorum; assay: Bleaching of tomato stains on cotton swatches, phenol oxidizing enzyme/enhancer system, detergent formulation wash solution; format: biochemical; settings: enhancer 250 μM, detergent formulation 2 g/l, 30 minutes, 30° C.; for ΔE, stain bleach performance, Oily Tomato Stain, With enzyme / ΔE, stain bleach performance, Tomato Extract, With enzyme: enzyme 20 mg/l
Procedure: as §1, §2, §3, §4, §5
Example 1 was repeated, using this time as wash solution a detergent formulation having the composition shown below, at a concentration of 2 g/l. The amounts are given in weight %.

Compound | ΔE, stain bleach performance, Oily Tomato Stain, With enzyme [1] | ΔE, stain bleach performance, Oily Tomato Stain, Without enzyme [1] | ΔE, stain bleach performance, Tomato Extract, With enzyme [1] | ΔE, stain bleach performance, Tomato Extract, Without enzyme [1] | ΔE, stain bleach performance, Oily Tomato Stain, With enzyme [2] | ΔE, stain bleach performance, Oily Tomato Stain, Without enzyme [2] | ΔE, stain bleach performance, Tomato Extract, With enzyme [2] | ΔE, stain bleach performance, Tomato Extract, Without enzyme [2]
Cc1ccc(S(=O)(=O)Nc2cc(Br)c(O)c(Br)c2Br)cc1 [3Brphenol3MeBSA, N-(2,3,5-tribromo-4-hydroxyphenyl) -4-Methyl benzenesulfonamide] | 6.21 | 1.56 | 19.59 | 10.86 | 11.71 | 6.87 | 27.57 | 12.86
O=S(=O)(Nc1cc(Br)c(O)c(Br)c1Br)c1ccccc1 [3BrphenolBSA, N-(2,3,5-tribromo-4-hydroxyphenyl)-benzenesulfonamide] | 5.62 | 4.18 | 19.97 | 10.33 | 10.95 | 6.89 | 26.87 | 12.99
